Data published in patent US20160310434A1, “GASTRO-RETENTIVE ORAL PHARMACEUTICAL COMPOSITIONS” (ETHYPHARM, priority 2013, published 2016).

Legend:
Format in all cases: physicochemical
[1] = pH of a saturated solution of baclofen
Text: (§1) Baclofen (below) is a BCS class III molecule.

pKa of baclofen = assay: pKa of baclofen
Text: as §1

Solubilities of baclofen = assay: Solubilities of baclofen
Text: as §1

Log P of baclofen = assay: Log P of baclofen
Text: as §1
At usual therapeutic doses, baclofen is known to have good oral bioavailability. However, its low log P indicates some hydrophilicity and thus low permeability. This observation is explained by the presence of specific transporters at the small intestine allowing the molecule to pass. This is even greater at the jejunum. […] This region of the digestive system contains no transporters but since the molecule is hydrophilic and of small size, weak passive transport through the tight junctions is possible. It thus appears that when a higher plasma concentration of baclofen is required, the taking of a higher dose is not effective due to saturation of the transporters. The clinical solution is thus to take small doses at shorter time intervals, which can quickly become burdensome for the patient.

In the case of `NCC(CC(=O)O)c1ccc(Cl)cc1` (stereo not drawn) [baclofen, Baclofen], the “pH of a saturated solution” value [1] is reported as 6.5, the pKa1 (pKa of baclofen) is reported as “pKa1 = 3.87” and the pKa2 (pKa of baclofen) is reported as “pKa2 = 9.62”. The Solubility (Solubilities of baclofen; 0.1N HCl) was “Soluble: 0.1N HCl, 0.1N NaOH”, the Solubility (Solubilities of baclofen; 0.1N NaOH) was “Soluble: 0.1N HCl, 0.1N NaOH” and the Solubility (Solubilities of baclofen; ethanol) was “Very slightly soluble: ethanol, methanol”. For the same molecule, the Solubility (Solubilities of baclofen; methanol) was “Very slightly soluble: ethanol, methanol”, the Solubility (Solubilities of baclofen; water) was “Slightly soluble: water (3 mg/ml)” and the “Log P” value (Log P of baclofen) was −1.
